Results published in patent publication US5481013A, “Carboxylic acid derivatives” (Ciba-Geigy Corporation, priority 1992, dated 1996).

How the values were obtained:
Type in all cases: in vivo
[1] = tested on: Panonychus ulmi (OP- and carb.- resistant); test: Activity against Panonychus ulmi (OP- and carb.- resistant); settings: 336 h, 400 ppm spray on apple seedlings, evaluated after 14 days, read-out: percentage reduction in population (% activity)
Bemisia tabaci = test: Activity against Bemisia tabaci; settings: 336 h, 400 ppm spray on dwarf bean plants with nymphs, evaluated 14 days after application, read-out: activity (hatching percentages vs untreated control)
Experimental: Dwarf bean plants are placed into gauze cages and populated with adult Bemisia tabaci specimens (white fly). After oviposition has taken place, all adults are removed and, 10 days later, the plants with the nymphs located thereon are treated with a spray mixture of the active ingredients to be tested (concentration 400 ppm), which has been prepared with an aqueous emulsion. The test is evaluated for hatching percentages 14 days after the active ingredient has been applied by comparison with the untreated control batches. […] An activity of over 80% is shown, in particular, by compound Nos. 1.01, 2.01 to 2.08, 2.10 to 2.16, 2.22, 2.23, 3.01, 4.01, 4.02, 4.05, 4.06, 5.02, 5.03, 5.06 to 5.08, 5.10, 5.11, 5.20, 5.21 and 6.09.

[2] = tested on: Crocidolomia binotalis caterpillars; test: Activity against Crocidolomia binotalis caterpillars; settings: Brassica oleracea, 72 h; 400 ppm spray on young cabbage plants, third larval stage, evaluated after 3 days; read-out: percentage reduction in population or in feeding damage (% activity)
Experimental: Young cabbage plants are sprayed with a spray mixture prepared with an aqueous emulsion and comprising 400 ppm of the active ingredient. After the spray coating has dried on, the cabbage plants are infested with 10 Crocidolomia binotalis in the third larval stage and placed into a plastic container. The test is evaluated after 3 days. The percentage reduction in population, or the percentage reduction in feeding damage (% activity), is determined by comparing the number of dead caterpillars and the feeding damage on the treated plants with those on the untreated plants.

Myzus persicae = test: Systemic activity against Myzus persicae; settings: roots of pea seedlings in 400 ppm spray mixture, 20° C., evaluated after 3 and 6 days, read-out: percentage reduction in population (% activity)
Experimental: Pea seedlings are infected with Myzus persicae, the roots of the plants are then placed into a spray mixture comprising 400 ppm of the active ingredient, and the plants are incubated at 20° C. The test is evaluated after 3 and 6 days. The percentage reduction in population (% activity) is determined by comparing the number of dead aphids on the treated plants with those on the untreated plants.

Dermanyssus gallinae = test: Activity against Dermanyssus gallinae; settings: 72 h, 10 ppm solution, mites in different development stages, after 3 days
Experimental: 2 to 3 ml of a solution comprising 10 ppm of active ingredient and approximately 200 mites in different development stages are placed into a glass container which is open at the top. The container is then sealed with a cottonwool ball, shaken for 10 minutes until the mites are wetted completely, and then briefly turned over so that the remaining test solution can be absorbed by the cottonwool. After 3 days, the mortality of the mites is determined by counting the dead individuals; it is given as a percentage.

O=C(CCCCCC=C(F)F)OCCOc1ccc(Oc2ccccc2)cc1 [Compound 3.01]
> 80%: activity at 400 ppm [1] | pest or weed control at 400 ppm (Bemisia tabaci) | activity at 400 ppm [2]

O=C(CC=C(F)F)OCCOc1ccc(Oc2ccccc2)cc1 [Compound 1.01, 2-(4-phenoxyphenoxy)ethyl-4,4-difluorobut-3-enoate]
> 80%: activity at 400 ppm [1] | pest or weed control at 400 ppm (Bemisia tabaci) | activity at 400 ppm [2] | activity at 400 ppm (Myzus persicae) | mortality at 10 ppm (Dermanyssus gallinae)
